Consider eleven compounds from ChEMBL document CHEMBL1201862, “PubChem BioAssay data set” (2004).

Some test systems named below: MDA-N; SK-OV-3; EKVX; 786-0; SNB-75; M14; HOP-92; COLO 205; CAKI-1; LOX IMVI; SK-MEL-28; RXF 393; MDA-MB-435; RPMI-8226; ACHN; SF-295; SN12C; HCC 2998; A549; NCI-H522.
What all share (test): growth of human tumour cells (NCI), 48 h

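In this assay, cells in 96-well plates receive the compound at five concentrations for 48 hours. Endpoints are linearly interpolated between the surrounding concentrations. GI50 is the concentration that inhibits growth by half.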 The source made the active and inactive calls. No stated cut-off is given here; in the data, active = GI50 up to about 1.1 µM and inactive = higher.

Regarding `COc1ccc2c(c1)OC1c3ccccc3OCC21` (configuration not stated), the GI50 is 36.6 µM (inactive) in the assay on MDA-N; > 100 µM (inactive) with SK-OV-3; 63.7 µM (inactive) in the assay with EKVX; > 100 µM (inactive) in the assay on 786-0; 27.4 µM (inactive) with SNB-75; 93.5 µM (inactive) with M14. The GI50 in the assay on HOP-92 is 61.8 µM (inactive); in the assay with COLO 205 it was > 100 µM (inactive); in the assay on CAKI-1 it was > 100 µM (inactive); with LOX IMVI it was 81.3 µM (inactive); in the assay on SK-MEL-28 it was > 100 µM (inactive); with RXF 393, 77.4 µM (inactive). In addition, the GI50 in the assay with MDA-MB-435 is 30.7 µM (inactive); in the assay on RPMI-8226 it was 71 µM (inactive); with ACHN it was > 100 µM (inactive); with SF-295 it was > 100 µM (inactive); in the assay on SN12C, > 100 µM (inactive); in the assay on HCC 2998 it was 39.9 µM (inactive).

Take `CC(=O)C(I(OS(=O)(=O)c1ccc(C)cc1)c1ccccc1)=P(c1ccccc1)(c1ccccc1)c1ccccc1`: the GI50 in the assay with MDA-N was 15 µM (inactive); in the assay with SK-OV-3, 43.6 µM (inactive); in the assay with EKVX it was 28 µM (inactive); in the assay on A549, 24.4 µM (inactive); in the assay on NCI-H522 it was 11.8 µM (inactive); in the assay with 786-0, 30.1 µM (inactive). Also, the GI50 in the assay on M14 is 22.1 µM (inactive); in the assay on HOP-92 it was 10.5 µM (inactive); with COLO 205, 17.1 µM (inactive); in the assay with CAKI-1 it was > 100 µM (inactive); in the assay with SK-MEL-28, 18 µM (inactive); in the assay on RXF 393, 42.1 µM (inactive). Further, the GI50 was 15.8 µM (inactive) in the assay with MDA-MB-435; 21.4 µM (inactive) in the assay with RPMI-8226; > 100 µM (inactive) with ACHN; 99.3 µM (inactive) in the assay on SF-295; 15.9 µM (inactive) with SN12C; 18 µM (inactive) in the assay on HCC 2998.

Regarding `CCCCCN1CCN(c2ncccn2)CC1`, the GI50 with MDA-N, in the assay on EKVX, in the assay with A549, in the assay on NCI-H522, with 786-0 and with SNB-75 was > 100 µM (inactive) each time. Also, the GI50 in the assay on M14 is > 100 µM (inactive); in the assay on HOP-92 it was 48.6 µM (inactive); in the assay with COLO 205 it was > 100 µM (inactive); in the assay on CAKI-1, > 100 µM (inactive); in the assay with LOX IMVI it was > 100 µM (inactive); in the assay with SK-MEL-28 it was > 100 µM (inactive). In addition, the GI50 in the assay with RXF 393, in the assay with MDA-MB-435, with RPMI-8226, in the assay on ACHN, in the assay with SF-295 and in the assay with SN12C was > 100 µM (inactive) throughout. The GI50 in the assay with HCC 2998 is > 100 µM (inactive).

Turning to `N#CC12C(=O)N=C(N)C1(C#N)C(c1ccco1)NC1=C2CCCC1` (configuration not stated), the GI50 with MDA-N, in the assay on SK-OV-3, in the assay on EKVX, in the assay with A549, in the assay on NCI-H522 and in the assay on 786-0 was > 100 µM (inactive) throughout. Moreover, the GI50 in the assay on M14, in the assay on HOP-92, in the assay with COLO 205, in the assay with CAKI-1, with LOX IMVI and with SK-MEL-28 was > 100 µM (inactive) each time. The GI50 in the assay on RXF 393, in the assay on MDA-MB-435, with RPMI-8226, with ACHN, in the assay on SF-295 and in the assay with SN12C was > 100 µM (inactive) throughout. Moreover, in the assay on HCC 2998, the GI50 is > 100 µM (inactive).

On to `O=C(Nc1ccccc1)C(=O)C(C(=O)c1ccccc1)C(c1ccccc1)c1ccccc1` (configuration not stated), for which the GI50 with MDA-N, in the assay on SK-OV-3, in the assay with EKVX, with A549, in the assay on 786-0 and in the assay with SNB-75 was > 10 µM (inactive) throughout. The GI50 in the assay on M14, with HOP-92, in the assay with COLO 205, in the assay on CAKI-1, in the assay with LOX IMVI and in the assay on SK-MEL-28 was > 10 µM (inactive) in each case. Moreover, the GI50 with RXF 393, with MDA-MB-435, in the assay on RPMI-8226, with SF-295, in the assay on SN12C and in the assay on HCC 2998 was > 10 µM (inactive) each time.

Turning to `N=C(N)SCc1ccc2c(c1)S(=O)(=O)c1ccccc1O2`, the GI50 is 17.7 µM (inactive) in the assay with MDA-N; 20.8 µM (inactive) in the assay on SK-OV-3; 17 µM (inactive) with EKVX; 19 µM (inactive) with A549; 33.6 µM (inactive) with 786-0; 14.6 µM (inactive) with SNB-75. In addition, the GI50 in the assay with M14 is 20.5 µM (inactive); in the assay with HOP-92 it was 15.7 µM (inactive); in the assay on COLO 205, 29 µM (inactive); with CAKI-1, 21.3 µM (inactive); in the assay on LOX IMVI, 19.4 µM (inactive); in the assay on SK-MEL-28, 16.4 µM (inactive). Also, the GI50 in the assay with RXF 393 is 21.2 µM (inactive); in the assay on MDA-MB-435, 15.5 µM (inactive); with RPMI-8226 it was 37.7 µM (inactive); in the assay on ACHN, 15.8 µM (inactive); in the assay with SF-295, 21.2 µM (inactive); in the assay with SN12C, 37.5 µM (inactive). Moreover, the GI50 with HCC 2998 was 22.1 µM (inactive).

Take `CCCCCCCCCC1(N=[N+]=[N-])C(=O)c2ccccc2N(C)C1=O` (configuration not stated): the GI50 in the assay with MDA-N was 30.7 µM (inactive); in the assay on SK-OV-3 it was 25.1 µM (inactive); with A549, 25.5 µM (inactive); in the assay on 786-0, 38.5 µM (inactive); with SNB-75, 29.9 µM (inactive); with M14, 27 µM (inactive). The GI50 with HOP-92 was 20.2 µM (inactive); with COLO 205, 32 µM (inactive); in the assay on CAKI-1 it was 34.4 µM (inactive); in the assay on LOX IMVI, 15.3 µM (inactive); in the assay with SK-MEL-28 it was 28.8 µM (inactive); in the assay on RXF 393, 22.6 µM (inactive). Besides, the GI50 was 2.58 µM (inactive) with MDA-MB-435; 39.9 µM (inactive) with RPMI-8226; 32.3 µM (inactive) in the assay on ACHN; 42.2 µM (inactive) in the assay on SF-295; 26.1 µM (inactive) in the assay with SN12C; 33 µM (inactive) in the assay with HCC 2998.

For the compound `CC(C)=CCC/C(C)=C/CC/C(C)=C/CSc1ccccc1C(=O)O` [SALIRASIB], the GI50 in the assay on MDA-N is 22.3 µM (inactive); in the assay with SK-OV-3, 25.4 µM (inactive); with EKVX, 18.4 µM (inactive); with A549, 20.7 µM (inactive); in the assay on 786-0, 18.2 µM (inactive); with SNB-75, 19.1 µM (inactive). The GI50 is 20.4 µM (inactive) with M14; 25.9 µM (inactive) in the assay on HOP-92; 23.6 µM (inactive) in the assay on COLO 205; 22.1 µM (inactive) in the assay with CAKI-1; 19.5 µM (inactive) with LOX IMVI; 21.1 µM (inactive) in the assay on SK-MEL-28. Besides, the GI50 in the assay with RXF 393 was 27.2 µM (inactive); with MDA-MB-435, 20 µM (inactive); with RPMI-8226, 32 µM (inactive); in the assay on ACHN, 37.7 µM (inactive); in the assay with SF-295, 18.7 µM (inactive); in the assay on SN12C, 23.3 µM (inactive). In addition, the GI50 with HCC 2998 was 18 µM (inactive).

For `CN1CCN(C(=S)N2CCN(C)CC2)CC1`, the GI50 in the assay with MDA-N was > 26.6 µM (inactive); in the assay on SK-OV-3, > 30.1 µM (inactive); in the assay on A549 it was > 100 µM (inactive); in the assay on NCI-H522 it was 0.966 µM (active); in the assay with 786-0 it was 21.9 µM (inactive); in the assay with M14 it was > 48.1 µM (inactive). Moreover, the GI50 in the assay with HOP-92 was > 100 µM (inactive); with COLO 205 it was 1.37 µM (inactive); in the assay on CAKI-1 it was > 100 µM (inactive); in the assay with LOX IMVI it was > 100 µM (inactive); in the assay with SK-MEL-28, > 100 µM (inactive); in the assay on RXF 393 it was > 100 µM (inactive). Further, the GI50 in the assay on MDA-MB-435 was > 100 µM (inactive); with RPMI-8226 it was 2.06 µM (inactive); with ACHN, > 100 µM (inactive); with SF-295 it was > 100 µM (inactive); with SN12C, > 100 µM (inactive); with HCC 2998 it was > 61.5 µM (inactive).

In the case of `N#C[BH2-][n+]1cn(C2CC(O)C(COP(=O)(O)OC3CC(n4cnc5c(N)ncnc54)OC3CO)O2)c2nc(N)[nH]c(=O)c21` (configuration not stated), the GI50 in the assay on MDA-N, with EKVX, in the assay with A549, in the assay on NCI-H522, in the assay with 786-0 and in the assay on SNB-75 was > 100 µM (inactive) throughout. Further, the GI50 in the assay on M14, with HOP-92, in the assay with COLO 205, in the assay with CAKI-1, in the assay on SK-MEL-28 and in the assay with RXF 393 was > 100 µM (inactive) throughout. In addition, the GI50 in the assay with MDA-MB-435, in the assay with ACHN, in the assay with SF-295, in the assay on SN12C and in the assay with HCC 2998 was > 100 µM (inactive) each time.

In the case of `O=C(O)CCCc1ccc2ccccc2c1`, the GI50 in the assay with MDA-N, with SK-OV-3, in the assay with EKVX, with A549, with NCI-H522 and in the assay with 786-0 was > 100 µM (inactive) each time. Moreover, the GI50 with M14, in the assay on HOP-92, in the assay on COLO 205, with CAKI-1, with LOX IMVI and in the assay on SK-MEL-28 was > 100 µM (inactive) throughout. Besides, the GI50 in the assay on RXF 393 was > 100 µM (inactive); in the assay on MDA-MB-435 it was > 100 µM (inactive); with RPMI-8226 it was 42.9 µM (inactive); in the assay with ACHN, > 100 µM (inactive); in the assay with SF-295, > 100 µM (inactive); in the assay on SN12C, > 100 µM (inactive). Also, in the assay on HCC 2998, the GI50 is > 100 µM (inactive).
